Test systems include NCI-H23 lung; NCI-H460 lung; OVCAR-4 ovarian; OVCAR-5 ovarian; KM12 colon; UO-31 renal; HCC-2998 colon; MDA-N; BT-549 breast; U251 CNS.
What all share (assay): DTP human tumour cell line panel, 48 h

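Test compounds were applied to cells in 96-well plates for 48 hours at 5 doses. Definition used: TGI = concentration required for complete inhibition of growth.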

As a reminder, the TGI is the concentration at which net growth stops.

In the case of `COc1cc(/C=C/C(=O)c2c(=O)o[nH][n+]2-c2ccccc2)ccc1[O-]`, the TGI stood at 8.78 µM in the experiment with NCI-H23 lung; 4.34 µM with NCI-H460 lung; 7.17 µM in the experiment with OVCAR-4 ovarian; 25.6 µM in the experiment on OVCAR-5 ovarian; 8.77 µM with KM12 colon; 10.1 µM in the experiment with UO-31 renal. In addition, the TGI is 6.28 µM in the experiment on HCC-2998 colon, 6.25 µM with MDA-N, 7.9 µM in the experiment on BT-549 breast and 11 µM in the experiment with U251 CNS.

Consider `c1ccc(CCNCc2ccco2)nc1`, for which the total growth inhibition concentration (TGI) with NCI-H23 lung, with NCI-H460 lung, with OVCAR-4 ovarian, in the experiment on OVCAR-5 ovarian, with KM12 colon and in the experiment with UO-31 renal was more than 100 µM throughout. Also, the TGI in the experiment with HCC-2998 colon, in the experiment with MDA-N, in the experiment with BT-549 breast and in the experiment on U251 CNS was more than 100 µM throughout.

Regarding `COc1ccc(N(C)C(=O)N(C)c2ccc([N+](=O)[O-])cc2)cc1`, the TGI in the experiment on NCI-H23 lung is more than 100 µM; in the experiment with NCI-H460 lung, more than 100 µM; with OVCAR-4 ovarian, more than 100 µM; with OVCAR-5 ovarian it was more than 100 µM; in the experiment with KM12 colon, 91.6 µM; with UO-31 renal, more than 100 µM. Moreover, the TGI is more than 100 µM with HCC-2998 colon, 24.2 µM with MDA-N, more than 100 µM in the experiment on BT-549 breast and more than 100 µM in the experiment on U251 CNS.

For the compound `Cc1cc(C)c(P2C(=C(O[Si](C(C)C)(C(C)C)C(C)C)C(C)(C)C)C2(c2ccccc2)c2ccccc2)c(C)c1` (stereo not given), the TGI in the experiment on NCI-H23 lung, in the experiment with NCI-H460 lung, in the experiment with OVCAR-4 ovarian, with OVCAR-5 ovarian, in the experiment on KM12 colon and with UO-31 renal was more than 100 µM throughout. In addition, the total growth inhibition concentration (TGI) with HCC-2998 colon, in the experiment with MDA-N, with BT-549 breast and with U251 CNS was more than 100 µM in each case.

For the compound `O=C1C=CC(=O)C(CNc2ccc(C(=O)OC34CC5CC(CC(C5)C3)C4)cc2)=C1`, the TGI came out at 25.4 µM in the experiment on NCI-H23 lung; 32.9 µM in the experiment on NCI-H460 lung; 12 µM in the experiment on OVCAR-4 ovarian; 39.2 µM in the experiment on OVCAR-5 ovarian; 22.5 µM with KM12 colon; 16 µM in the experiment on UO-31 renal. The total growth inhibition concentration (TGI) in the experiment on HCC-2998 colon was 32.4 µM; with MDA-N, 19.2 µM; in the experiment on BT-549 breast, 15.7 µM; with U251 CNS, 16.4 µM.

The record behind these values is PubChem BioAssay (NCI).
